Consider 25 molecules from patent US9914731B2, “Pyrazolo[1,5-a]pyridine derivatives and methods of their use” (Ignyta, Inc., priority 2013, dated 2018).

One may read the pIC50 as −log10 of the IC50, conventionally taken in molar units.

The structures appear in SMILES notation. pIC50: −log10 of the molar value.

The first experiment concerns the target recombinant human baculovirus-expressed cMET (Homo sapiens (Human), UniProt P08581). Kind of experiment: c-MET kinase assay (HTRF KinEASE). It is filed as biochemical. The note with it: average of two or more determinations; read-out: c-MET IC50.
With `O=C(Nc1ccc(Oc2cc(Nc3ccccn3)cn3nccc23)c(F)c1)c1cccn(-c2ccc(F)cc2)c1=O` [Example 81, 1-(4-Fluoro-phenyl)-2-oxo-1,2-dihydro-pyridine-3-carboxylic acid{3-fluoro-4-[6-(pyridin-2-ylamino)-pyrazolo[1,5-a]pyridin-4-yloxy]-phenyl}-amide], the negative logarithm of the IC50 (pIC50) is over 8.00.

`Cc1c(Nc2cc(Oc3ccc(NC(=O)c4cccn(-c5ccc(F)cc5)c4=O)cc3F)c3ccnn3c2)cnn1C` [Example 82, 1-(4-Fluoro-phenyl)-2-oxo-1,2-dihydro-pyridine-3-carboxylic acid{4-[6-(1,5-dimethyl-1H-pyrazol-4-ylamino)-pyrazolo[1,5-a]pyridin-4-yloxy]-3-fluoro-phenyl}-amide]: the pIC50 is over 8.00.

As to `Cc1ccc(C(=O)Nc2ccc(Oc3cc(Nc4ccc(F)cn4)cn4nccc34)c(F)c2)c(=O)n1-c1ccc(F)cc1` [Example 83, 1-(4-Fluoro-phenyl)-6-methyl-2-oxo-1,2-dihydro-pyridine-3-carboxylic acid {3-fluoro-4-[6-(5-fluoro-pyridin-2-ylamino)-pyrazolo[1,5-a]pyridin-4-yloxy]-phenyl}-amide], the pIC50 is over 8.00.

In the case of `CCn1cc(C(=O)Nc2ccc(Oc3cc(Nc4ncccn4)cn4nccc34)c(F)c2)c(=O)n(-c2ccc(F)cc2)c1=O` [Example 84, 1-Ethyl-3-(4-fluoro-phenyl)-2,4-dioxo-1,2,3,4-tetrahydro-pyrimidine-5-carboxylic acid{3-fluoro-4-[6-(pyrimidin-2-ylamino)-pyrazolo[1,5-a]pyridin-4-yloxy]-phenyl}-amide], the negative logarithm of the IC50 (pIC50) is 7.00 to 8.00. Same read-out and setting: for `CC(C)n1cc(C(=O)Nc2ccc(Oc3cc(Nc4ncccn4)cn4nccc34)c(F)c2)c(=O)n(-c2ccc(F)cc2)c1=O` [Example 85, 3-(4-Fluoro-phenyl)-1-isopropyl-2,4-dioxo-1,2,3,4-tetrahydro-pyrimidine-5-carboxylic acid{3-fluoro-4-[6-(pyrimidin-2-ylamino)-pyrazolo[1,5-a]pyridin-4-yloxy]-phenyl}-amide] the value was over 8.00. Same read-out and setting: for `CCn1cc(C(=O)Nc2ccc(Oc3cc(Nc4ccccn4)cn4nccc34)c(F)c2)c(=O)n(-c2ccc(F)cc2)c1=O` [Example 86, 1-Ethyl-3-(4-fluoro-phenyl)-2,4-dioxo-1,2,3,4-tetrahydro-pyrimidine-5-carboxylic acid{3-fluoro-4-[6-(pyridin-2-ylamino)-pyrazolo[1,5-a]pyridin-4-yloxy]-phenyl}-amide] the value was 7.00 to 8.00. On the same count and under the same terms, the result for `CC(C)n1cc(C(=O)Nc2ccc(Oc3cc(Nc4ccccn4)cn4nccc34)c(F)c2)c(=O)n(-c2ccc(F)cc2)c1=O` [Example 87, 3-(4-Fluoro-phenyl)-1-isopropyl-2,4-dioxo-1,2,3,4-tetrahydro-pyrimidine-5-carboxylic acid{3-fluoro-4-[6-(pyridin-2-ylamino)-pyrazolo[1,5-a]pyridin-4-yloxy]-phenyl}-amide] reads 7.00 to 8.00. For the molecule `Cn1cc(-c2cc(Oc3ccc(NC(=O)c4cccn(-c5ccc(F)cc5)c4=O)cn3)c3ccnn3c2)cn1` [Example 89, 1-(4-Fluoro-phenyl)-2-oxo-1,2-dihydro-pyridine-3-carboxylic acid{6-[6-(1-methyl-1H-pyrazol-4-yl)-pyrazolo[1,5-a]pyridin-4-yloxy]-pyridin-3-yl}-amide], the pIC50 is over 8.00. Regarding `Cn1ccnc1-c1cc(Oc2ccc(NC(=O)c3cccn(-c4ccc(F)cc4)c3=O)cc2F)c2ccnn2c1` [Example 90, 1-(4-Fluoro-phenyl)-2-oxo-1,2-dihydro-pyridine-3-carboxylic acid{3-fluoro-4-[6-(1-methyl-1H-imidazol-2-yl)-pyrazolo[1,5-a]pyridin-4-yloxy]-phenyl}-amide], the pIC50 is over 8.00. Same read-out and setting: for `Cn1cnc(-c2cc(Oc3ccc(NC(=O)c4cn(CCO)c(=O)n(-c5ccc(F)cc5)c4=O)cc3F)c3ccnn3c2)c1` [Example 97, 3-(4-Fluoro-phenyl)-1-(2-hydroxy-ethyl)-2,4-dioxo-1,2,3,4-tetrahydro-pyrimidine-5-carboxylic acid{3-fluoro-4-[6-(1-methyl-1H-imidazol-4-yl)-pyrazolo[1,5-a]pyridin-4-yloxy]-phenyl}-amide] the value was over 8.00. Regarding `Cc1ccc(C(=O)Nc2ccc(Oc3cc(-c4ncco4)cn4nccc34)c(F)c2)c(=O)n1-c1ccc(F)cc1` [Example 98, 1-(4-Fluoro-phenyl)-6-methyl-2-oxo-1,2-dihydro-pyridine-3-carboxylic acid [3-fluoro-4-(6-oxazol-2-yl-pyrazolo[1,5-a]pyridin-4-yloxy)-phenyl]-amide], the pIC50 is over 8.00. Still for that read-out and setting: the result for `CCn1cc(C(=O)Nc2ccc(Oc3cc(-c4cncn4C)cn4nccc34)c(F)c2)c(=O)n(-c2ccc(F)cc2)c1=O` [Example 100, 1-Ethyl-3-(4-fluoro-phenyl)-2,4-dioxo-1,2,3,4-tetrahydro-pyrimidine-5-carboxylic acid{3-fluoro-4-[6-(3-methyl-3H-imidazol-4-yl)-pyrazolo[1,5-a]pyridin-4-yloxy]-phenyl}-amide] reads over 8.00; that for `O=C(Nc1ccc(Oc2cc(-c3cncs3)cn3nccc23)c(F)c1)c1cccn(-c2ccc(F)cc2)c1=O` [Example 105, 1-(4-Fluoro-phenyl)-2-oxo-1,2-dihydro-pyridine-3-carboxylic acid[3-fluoro-4-(6-thiazol-5-yl-pyrazolo[1,5-a]pyridin-4-yloxy)-phenyl]-amide], over 8.00; that for `CC(C)n1cc(C(=O)Nc2ccc(Oc3cc(-c4cscn4)cn4nccc34)c(F)c2)c(=O)n(-c2ccc(F)cc2)c1=O` [Example 106, 3-(4-Fluoro-phenyl)-1-isopropyl-2,4-dioxo-1,2,3,4-tetrahydro-pyrimidine-5-carboxylic acid[3-fluoro-4-(6-thiazol-4-yl-pyrazolo[1,5-a]pyridin-4-yloxy)-phenyl]-amide], over 8.00. In the case of `Cn1cnc(-c2cc(Oc3ccc(NC(=O)C4(C(=O)Nc5ccc(F)cc5)CC4)cc3F)c3ccnn3c2)c1` [Example 108, Cyclopropane-1,1-dicarboxylic acid{3-fluoro-4-[6-(1-methyl-1H-imidazol-4-yl)-pyrazolo[1,5-a]pyridin-4-yloxy]-phenyl}-amide(4-fluoro-phenyl)-amide], the negative logarithm of the IC50 (pIC50) is over 8.00. As for `CCn1cc(C(=O)Nc2ccc(Oc3cc(-c4cn(C)cn4)cn4nccc34)c(C)c2)c(=O)n(-c2ccc(F)cc2)c1=O` [Example 109, 1-Ethyl-3-(4-fluoro-phenyl)-2,4-dioxo-1,2,3,4-tetrahydro-pyrimidine-5-carboxylic acid{3-methyl-4-[6-(1-methyl-1H-imidazol-4-yl)-pyrazolo[1,5-a]pyridin-4-yloxy]-phenyl}-amide], the pIC50 was over 8.00. The same measure, in the same setting: the result for `CCOc1ccn(-c2ccc(F)cc2)c(=O)c1C(=O)Nc1ccc(Oc2cc(-c3cn(C)cn3)cn3nccc23)c(F)c1` [Example 112, 4-Ethoxy-1-(4-fluoro-phenyl)-2-oxo-1,2-dihydro-pyridine-3-carboxylic acid {3-fluoro-4-[6-(1-methyl-1H-imidazol-4-yl)-pyrazolo[1,5-a]pyridin-4-yloxy]-phenyl}-amide] reads over 8.00. Same read-out and setting: the result for `CCn1cc(C(=O)Nc2ccc(Oc3cc(-c4cn(C)cn4)cn4nccc34)nc2)c(=O)n(-c2ccc(F)cc2)c1=O` [Example 115, 1-Ethyl-3-(4-fluoro-phenyl)-2,4-dioxo-1,2,3,4-tetrahydro-pyrimidine-5-carboxylic acid{6-[6-(1-methyl-1H-imidazol-4-yl)-pyrazolo[1,5-a]pyridin-4-yloxy]-pyridin-3-yl}-amide] reads over 8.00; that for `CC(C)n1cc(C(=O)Nc2ccc(Oc3cc(-c4cn(C)cn4)cn4nccc34)nc2)c(=O)n(-c2ccc(F)cc2)c1=O` [Example 116, 3-(4-Fluoro-phenyl)-1-isopropyl-2,4-dioxo-1,2,3,4-tetrahydro-pyrimidine-5-carboxylic acid{6-[6-(1-methyl-1H-imidazol-4-yl)-pyrazolo[1,5-a]pyridin-4-yloxy]-pyridin-3-yl}-amide], over 8.00; that for `CCOc1ccn(-c2ccc(F)cc2)c(=O)c1C(=O)Nc1ccc(Oc2cc(-c3cn(C)cn3)cn3nccc23)cc1` [Example 118, 4-Ethoxy-1-(4-fluoro-phenyl)-2-oxo-1,2-dihydro-pyridine-3-carboxylic acid {4-[6-(1-methyl-1H-imidazol-4-yl)-pyrazolo[1,5-a]pyridin-4-yloxy]-phenyl}-amide], over 8.00. Still for that read-out and setting: for `CCn1cc(C(=O)Nc2ccc(Oc3cc(-c4cn(C)cn4)cn4nccc34)c(OCc3ccccc3)c2)c(=O)n(-c2ccc(F)cc2)c1=O` [Example 119] the value was 7.00 to 8.00; for `CCn1cc(C(=O)Nc2ccc(Oc3cc(-c4cn(C)cn4)cn4nccc34)c(O)c2)c(=O)n(-c2ccc(F)cc2)c1=O` [Example 120, 1-Ethyl-3-(4-fluoro-phenyl)-2,4-dioxo-1,2,3,4-tetrahydro-pyrimidine-5-carboxylic acid{3-hydroxy-4-[6-(1-methyl-1H-imidazol-4-yl)-pyrazolo[1,5-a]pyridin-4-yloxy]-phenyl}-amide], 7.00 to 8.00; for `CC(C)n1cc(C(=O)Nc2ccc(Oc3cc(-c4cn(C)cn4)cn4nccc34)c(OCc3ccccc3)c2)c(=O)n(-c2ccc(F)cc2)c1=O` [Example 121, 3-(4-Fluoro-phenyl)-1-isopropyl-2,4-dioxo-1,2,3,4-tetrahydro-pyrimidine-5-carboxylic acid {3-benzyloxy-4-[6-(1-methyl-1H-imidazol-4-yl)-pyrazolo[1,5-a]pyridine-4-yloxy]-phenyl}-amide], 7.00 to 8.00.

Regarding `CC(C)n1cc(C(=O)Nc2ccc(Oc3cc(-c4cn(C)cn4)cn4nccc34)c(O)c2)c(=O)n(-c2ccc(F)cc2)c1=O` [Example 122, 3-(4-Fluoro-phenyl)-1-isopropyl-2,4-dioxo-1,2,3,4-tetrahydro-pyrimidine-5-carboxylic acid{3-hydroxy-4-[6-(1-methyl-1H-imidazol-4-yl)-pyrazolo[1,5-a]pyridin-4-yloxy]-phenyl}-amide], the pIC50 was 7.00 to 8.00.

Staying with this experiment, now noted: read-out: c-MET IC50.
On to `CC(C)n1cc(C(=O)Nc2ccc(Oc3cc(-c4ncco4)cn4nccc34)c(F)c2)c(=O)n(-c2ccc(F)cc2)c1=O` [Example 99, 3-(4-Fluoro-phenyl)-1-isopropyl-2,4-dioxo-1,2,3,4-tetrahydro-pyrimidine-5-carboxylic acid[3-fluoro-4-(6-oxazol-2-yl-pyrazolo[1,5-a]pyridin-4-yloxy)-phenyl]-amide], for which the pIC50 is over 8.00.
